For one assay, the target named is T1, Tyk2 (Homo sapiens, UniProt P29597).
T1 construct: purchased Invitrogen
The experiment in a line: Tyk2 enzyme inhibition test (LANCE method). It is filed as biochemical. The conditions noted are these: for inhibition at 1 µM: test compound 1 μM, read-out: Inhibitory rate (%) Tyk2 1 μM; for inhibition at 10 µM: test compound 10 μM, read-out: Inhibitory rate (%) Tyk2 10 μM. The procedure, abridged:
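LANCE TR-FRET read-out (ex 340/em 665 nm, 100 μs delay) of ULight-JAK1 phosphorylation, with no-enzyme wells as 100% inhibition. Reaction run 1 h at room temperature in pH 7.5 HEPES buffer; enzyme 375 ng/mL, substrate 300 nM and ATP 30 μM are solution concentrations before mixing.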

Another assay concerns the target T2, JAK1 (Homo sapiens, UniProt P23458).
T2 construct: purchased Invitrogen
The assay can be described thus: JAK1 enzyme inhibition test (LANCE method). It is filed as biochemical. The conditions noted are these: for inhibition at 1 µM: test compound 1 μM, read-out: Inhibitory rate (%) JAK1 1 μM; for inhibition at 10 µM: read-out: Inhibitory rate (%) JAK1 10 μM. The method, boiled down: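 Reactions ran 1 h at room temperature in HEPES pH 7.5/MgCl2 buffer, with ATP solution at 150 μM and JAK1 and ULight peptide solutions at 187.5 ng/mL and 300 nM. Reactions were stopped with EDTA, and phosphorylation was read by Eu antibody time-resolved fluorescence at 665 nm. Inhibition was scaled to a no-enzyme control as 100%.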
In general terms: In TR-FRET formats the signal depends on donor and acceptor labels being close together.

Setting [1] is: test compound 10 μM (Ex. 182-220), beside Tyk2 1 μM.

Like-named read-outs stand apart in the source and are kept apart here.

T2 sequence (P23458 whole entry): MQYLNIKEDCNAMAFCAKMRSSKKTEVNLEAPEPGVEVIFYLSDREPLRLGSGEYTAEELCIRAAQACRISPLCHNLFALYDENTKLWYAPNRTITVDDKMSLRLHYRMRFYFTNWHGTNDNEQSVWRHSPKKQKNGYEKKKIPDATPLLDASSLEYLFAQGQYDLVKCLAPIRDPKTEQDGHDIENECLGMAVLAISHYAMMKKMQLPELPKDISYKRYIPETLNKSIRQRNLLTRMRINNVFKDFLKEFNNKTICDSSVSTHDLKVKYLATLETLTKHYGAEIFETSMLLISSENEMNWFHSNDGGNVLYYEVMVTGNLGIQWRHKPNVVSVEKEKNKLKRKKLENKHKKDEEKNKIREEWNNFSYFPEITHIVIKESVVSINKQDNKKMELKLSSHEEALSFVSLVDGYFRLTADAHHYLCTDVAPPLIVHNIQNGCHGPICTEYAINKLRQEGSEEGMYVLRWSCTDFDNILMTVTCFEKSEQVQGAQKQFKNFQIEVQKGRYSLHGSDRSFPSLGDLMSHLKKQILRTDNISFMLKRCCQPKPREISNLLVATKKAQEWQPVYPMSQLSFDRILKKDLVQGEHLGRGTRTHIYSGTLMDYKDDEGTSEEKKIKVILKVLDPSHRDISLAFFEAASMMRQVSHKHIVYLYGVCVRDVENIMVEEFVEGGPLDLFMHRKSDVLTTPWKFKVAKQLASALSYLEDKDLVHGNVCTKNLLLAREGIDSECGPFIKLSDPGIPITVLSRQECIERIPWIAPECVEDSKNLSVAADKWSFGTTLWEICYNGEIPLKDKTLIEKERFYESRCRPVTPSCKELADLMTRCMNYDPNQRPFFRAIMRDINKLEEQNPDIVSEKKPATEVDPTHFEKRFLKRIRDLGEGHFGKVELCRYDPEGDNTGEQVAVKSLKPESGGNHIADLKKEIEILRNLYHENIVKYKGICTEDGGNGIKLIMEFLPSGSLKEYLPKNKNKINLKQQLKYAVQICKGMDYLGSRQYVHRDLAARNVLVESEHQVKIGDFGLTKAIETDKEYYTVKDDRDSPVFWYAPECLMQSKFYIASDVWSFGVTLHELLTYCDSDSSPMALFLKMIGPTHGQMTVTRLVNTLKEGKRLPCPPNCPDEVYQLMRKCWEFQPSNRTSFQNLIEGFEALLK
T1 sequence (P29597 whole entry): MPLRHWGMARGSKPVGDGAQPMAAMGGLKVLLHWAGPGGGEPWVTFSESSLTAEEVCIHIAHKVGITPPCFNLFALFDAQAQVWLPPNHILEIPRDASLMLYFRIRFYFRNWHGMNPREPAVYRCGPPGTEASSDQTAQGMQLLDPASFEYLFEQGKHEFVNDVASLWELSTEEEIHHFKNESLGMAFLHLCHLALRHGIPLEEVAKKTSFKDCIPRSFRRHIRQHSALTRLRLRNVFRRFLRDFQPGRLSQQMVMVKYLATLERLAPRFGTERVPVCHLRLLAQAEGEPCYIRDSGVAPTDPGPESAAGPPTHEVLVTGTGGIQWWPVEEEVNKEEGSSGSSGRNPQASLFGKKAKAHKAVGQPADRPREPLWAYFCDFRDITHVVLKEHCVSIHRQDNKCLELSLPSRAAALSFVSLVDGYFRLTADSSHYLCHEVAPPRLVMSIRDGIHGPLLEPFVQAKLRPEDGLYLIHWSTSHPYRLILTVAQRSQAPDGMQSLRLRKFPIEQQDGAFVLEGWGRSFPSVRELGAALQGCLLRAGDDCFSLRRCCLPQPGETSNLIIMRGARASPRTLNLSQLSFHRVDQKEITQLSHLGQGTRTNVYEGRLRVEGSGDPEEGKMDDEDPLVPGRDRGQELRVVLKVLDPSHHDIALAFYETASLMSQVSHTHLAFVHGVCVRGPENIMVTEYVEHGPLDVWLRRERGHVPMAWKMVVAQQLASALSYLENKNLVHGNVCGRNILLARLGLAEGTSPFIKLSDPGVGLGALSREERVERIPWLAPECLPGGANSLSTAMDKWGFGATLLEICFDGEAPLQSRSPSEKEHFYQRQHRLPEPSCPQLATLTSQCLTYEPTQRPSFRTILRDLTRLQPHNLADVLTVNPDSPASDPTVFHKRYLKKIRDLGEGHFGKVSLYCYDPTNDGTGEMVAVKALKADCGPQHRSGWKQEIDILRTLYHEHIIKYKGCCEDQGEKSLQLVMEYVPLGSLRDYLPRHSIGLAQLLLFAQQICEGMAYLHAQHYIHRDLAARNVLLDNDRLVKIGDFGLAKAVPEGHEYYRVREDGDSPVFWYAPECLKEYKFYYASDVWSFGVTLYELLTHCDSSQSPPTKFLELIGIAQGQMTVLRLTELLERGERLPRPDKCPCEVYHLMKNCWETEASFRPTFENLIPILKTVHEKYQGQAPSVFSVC

Consider `N#Cc1c[nH]c(=O)c2c(-c3csc(C(=O)O)c3)cn(C3CCCC3)c12` [Example 77, 4-(7-cyano-1-cyclopentyl-4-oxo-4,5-dihydro-1H-pyrrolo[3,2-c]pyridin-3-yl)thiophene-2-carboxylic acid], for which the inhibition at 1 µM on Tyk2 worked out at 99%; at JAK1, 96%.
For `N#Cc1cc(-c2nn(-c3c(F)cccc3F)c3c(Cl)c[nH]c(=O)c23)ccc1N1CCOCC1` [Example 200, 5-(7-chloro-1-(2,6-difluorophenyl)-4-oxo-4,5-dihydro-1H-pyrazolo[4,3-c]pyridin-3-yl)-2-(morpholin-4-yl)benzonitrile], the inhibition at 1 µM on Tyk2 worked out at 98%. Also, the inhibition at 10 µM on JAK1 (setting [1]) amounted to 22%.
As for `CNC(=O)c1ccc(-c2nn(-c3c(F)cccc3F)c3cc[nH]c(=O)c23)c(Cl)c1` [Example 295, 3-chloro-4-(1-(2,6-difluorophenyl)-4-oxo-4,5-dihydro-1H-pyrazolo[4,3-c]pyridin-3-yl)-N-methylbenzamide], the inhibition at 10 µM at Tyk2 stood at 80%; on JAK1 (test compound 10 μM), 24%.
Consider `CC1(O)CCC(n2nc(-c3csc(C(N)=O)c3)c3c(=O)[nH]ccc32)CC1` (stereo not drawn) [Example 198, 4-(1-(4-hydroxy-4-methylcyclohexyl)-4-oxo-4,5-dihydro-1H-pyrazolo[4,3-c]pyridin-3-yl)thiophene-2-carboxamide], for which the inhibition at 1 µM at Tyk2 came out at 100%. Moreover, the inhibition at 10 µM on JAK1 (setting [1]) is 100%.
Take `CC(=O)N1CCC(c2ccc(-c3nn(-c4c(F)cccc4F)c4cc[nH]c(=O)c34)cc2)CC1` [Example 301, 3-(4-(1-acetylpiperidin-4-yl)phenyl)-1-(2,6-difluorophenyl)-1,5-dihydro-4H-pyrazolo[4,3-c]pyridin-4-one]: the inhibition at 1 µM is 99% on Tyk2 and 97% at JAK1.
As for `N#CCn1cc(-c2cn(C3CCCC3)c3c(C#N)c[nH]c(=O)c23)cn1` [Example 99, 3-(1-(cyanomethyl)-1H-pyrazol-4-yl)-1-cyclopentyl-4-oxo-4,5-dihydro-1H-pyrrolo[3,2-c]pyridine-7-carbonitrile], the inhibition at 1 µM was 99% at Tyk2 and 97% on JAK1.
On to `CNC(=O)c1ccc(F)c(-c2nn(-c3c(F)cccc3F)c3c(Cl)c[nH]c(=O)c23)c1` [Example 271, 3-(7-chloro-1-(2,6-difluorophenyl)-4-oxo-4,5-dihydro-1H-pyrazolo[4,3-c]pyridin-3-yl)-4-fluoro-N-methylbenzamide], for which the inhibition at 10 µM at Tyk2 is 26%; at JAK1 (test compound 10 μM), -1%.
In the case of `NC(=O)c1cc(-c2nn(C3CCCC3)c3c(Br)c[nH]c(=O)c23)cs1` [Example 280, 4-(7-bromo-1-cyclopentyl-4-oxo-4,5-dihydro-1H-pyrazolo[4,3-c]pyridin-3-yl)thiophene-2-carboxamide], the inhibition at 1 µM on Tyk2 amounted to 97%; at JAK1 it was 94%.
The matching figures for `N#CCc1ccc(-c2nn(C3CCCC3)c3cc[nH]c(=O)c23)cc1` [Example 127, (4-(1-cyclopentyl-4-oxo-4,5-dihydro-1H-pyrazolo[4,3-c]pyridin-3-yl)phenyl)acetonitrile]: 97% and 99%.
As to `CCC(COC)n1cc(-c2ccc(C#N)cc2)c2c(=O)[nH]ccc21` (stereo not drawn) [Example 24, 4-(1-(1-methoxybutan-2-yl)-4-oxo-4,5-dihydro-1H-pyrrolo[3,2-c]pyridin-3-yl)benzonitrile], the inhibition at 1 µM on Tyk2 was determined as 33%; at JAK1, 35%.
The corresponding values for `COC(=O)c1c[nH]c(=O)c2c(-c3csc(-c4noc(=O)[nH]4)c3)cn(C3CCCC3)c12` [Example 74, methyl 1-cyclopentyl-4-oxo-3-(5-(5-oxo-4,5-dihydro-1,2,4-oxadiazol-3-yl)-3-thienyl)-4,5-dihydro-1H-pyrrolo[3,2-c]pyridine-7-carboxylate] are 85% and 44%.
The matching figures for `NC(=O)c1cc(-n2nc(C3CCCC3)c3cc[nH]c(=O)c32)cs1` [Example 117, 4-(3-cyclopentyl-7-oxo-6,7-dihydro-1H-pyrazolo[3,4-c]pyridin-1-yl)thiophene-2-carboxamide]: 98% and 99%.
The corresponding values for `CN1CCN(c2ccc(-c3nn(-c4c(F)cccc4F)c4c(Cl)c[nH]c(=O)c34)cc2)C1=O` [Example 239, 7-chloro-1-(2,6-difluorophenyl)-3-(4-(3-methyl-2-oxoimidazolidin-1-yl)phenyl)-1,5-dihydro-4H-pyrazolo[4,3-c]pyridin-4-one] are 99% and 46%.
With `CC1(C)CCCC1n1nc(-c2ccc(N3CCOCC3)cc2)c2c(=O)[nH]ccc21` (stereo not drawn) [Example 314, 1-(2,2-dimethylcyclopentyl)-3-(4-(morpholin-4-yl)phenyl)-1,5-dihydro-4H-pyrazolo[4,3-c]pyridin-4-one], the inhibition at 1 µM at Tyk2 came out at 99%; on JAK1, 95%.
The matching figures for `C[C@H]1CCC[C@H]1n1cc(-c2ccc(S(N)(=O)=O)cc2)c2c(=O)[nH]ccc21` (relative stereo) [Example 71, 4-(1-(cis-2-methylcyclopentyl)-4-oxo-4,5-dihydro-1H-pyrrolo[3,2-c]pyridin-3-yl)benzenesulfonamide]: 97% and 99%.
Consider `COC(=O)c1cc(-c2cn(C3CCCC3)c3c(C#N)c[nH]c(=O)c23)cs1` [Example 76, methyl 4-(7-cyano-1-cyclopentyl-4-oxo-4,5-dihydro-1H-pyrrolo[3,2-c]pyridin-3-yl)thiophene-2-carboxylate], for which the inhibition at 1 µM came to 99% at Tyk2 and 92% at JAK1.
With `CCNC(=O)n1cc(-c2nn(-c3c(F)cccc3F)c3c(Cl)c[nH]c(=O)c23)cn1` [Example 222, 4-(7-chloro-1-(2,6-difluorophenyl)-4-oxo-4,5-dihydro-1H-pyrazolo[4,3-c]pyridin-3-yl)-N-ethyl-1H-pyrazole-1-carboxamide], the figures for the inhibition at 1 µM on Tyk2 and on JAK1 were 98% and 69%, respectively.
As to `CC(C)(C#N)c1ccc(-c2nn(-c3c(F)cccc3F)c3c(Cl)c[nH]c(=O)c23)cc1` [Example 187, 2-(4-(7-chloro-1-(2,6-difluorophenyl)-4-oxo-4,5-dihydro-1H-pyrazolo[4,3-c]pyridin-3-yl)phenyl)-2-methylpropanenitrile], on Tyk2, the inhibition at 1 µM came out at 98%. Moreover, the inhibition at 10 µM on JAK1 (setting [1]) worked out at 83%.
For the compound `CNC(=O)c1ccc(-c2nn(-c3c(F)cccc3C#N)c3cc[nH]c(=O)c23)cc1` [Example 307, 4-(1-(2-cyano-6-fluorophenyl)-4-oxo-4,5-dihydro-1H-pyrazolo[4,3-c]pyridin-3-yl)-N-methylbenzamide], the inhibition at 1 µM on Tyk2 is 99%; at JAK1, 92%.
`N#CCc1ccc(-c2cn(C3CCOC3)c3cc[nH]c(=O)c23)cc1` (stereo not drawn) [Example 22, (4-(4-oxo-1-(tetrahydrofuran-3-yl)-4,5-dihydro-1H-pyrrolo[3,2-c]pyridin-3-yl)phenyl)acetonitrile]: the inhibition at 1 µM at Tyk2 came out at 53%; on JAK1 it was 77%.
With `O=c1[nH]cc(Cl)c2c1c(-c1ccc(N3CCCOCC3)cc1)nn2-c1c(F)cccc1F` [Example 207, 7-chloro-1-(2,6-difluorophenyl)-3-(4-(1,4-oxazepan-4-yl)phenyl)-1,5-dihydro-4H-pyrazolo[4,3-c]pyridin-4-one], at Tyk2, the inhibition at 1 µM was 100%. Also, the inhibition at 10 µM at JAK1 (setting [1]) was determined as 73%.

Source of the values: patent US9371320B2, “Heterocyclic compound” (TAKEDA PHARMACEUTICAL COMPANY LIMITED, priority 2012, dated 2016).
